Assay results from ChEMBL document CHEMBL5137037, “Phage Display Selected Cyclic Peptide Inhibitors of Kallikrein-Related Peptidases 5 and 7 and Their In Vivo Delivery to the Skin” (J Med Chem, 2022).
Numbered stars: 1 amine (or outer) side, 2 acyl side, 3 side chain; on linkers, the order of the positions; unused ones are H or OH. Bridge positions count the residues as written; N and C are the ends. Peptide text beside a SMILES is read from it. Pyridine(2,6-diCH2) = c1cc(C[*:1])nc(C[*:2])c1; CH2COCH2 = O=C(C[*:1])C[*:2]

Experiments:
[1] = Stability of the compound in human plasma assessed as half life […] by LC-MS analysis; format: ADME, cell-free
[2] = biological target: T1, Kallikrein-5 (Homo sapiens, UniProt Q9Y337); test: Inhibition of C-terminal poly-His-tagged human recombinant KLK5 (30 to 293 residues) transfected in CHO cells assessed as inhibition constant using Boc-VPR-AMC as fluorogenic substrate incubated for 30 mins by fluorescence plate reader assay; format: cell-based
T1 sequence (Q9Y337 whole entry): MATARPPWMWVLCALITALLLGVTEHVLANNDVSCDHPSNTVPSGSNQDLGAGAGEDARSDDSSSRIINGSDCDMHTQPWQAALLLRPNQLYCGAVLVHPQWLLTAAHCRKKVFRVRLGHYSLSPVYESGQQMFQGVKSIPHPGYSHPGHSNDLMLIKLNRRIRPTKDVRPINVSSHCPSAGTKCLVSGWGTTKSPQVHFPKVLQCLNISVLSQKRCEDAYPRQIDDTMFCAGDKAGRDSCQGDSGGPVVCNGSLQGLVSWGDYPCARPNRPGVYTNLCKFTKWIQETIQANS

[3] = biological target: Albumin (Homo sapiens, UniProt P02768); test: Binding affinity to human serum albumin by fluorescence polarization assay
Sequence of Albumin (P02768 whole entry, the tested form may be a part): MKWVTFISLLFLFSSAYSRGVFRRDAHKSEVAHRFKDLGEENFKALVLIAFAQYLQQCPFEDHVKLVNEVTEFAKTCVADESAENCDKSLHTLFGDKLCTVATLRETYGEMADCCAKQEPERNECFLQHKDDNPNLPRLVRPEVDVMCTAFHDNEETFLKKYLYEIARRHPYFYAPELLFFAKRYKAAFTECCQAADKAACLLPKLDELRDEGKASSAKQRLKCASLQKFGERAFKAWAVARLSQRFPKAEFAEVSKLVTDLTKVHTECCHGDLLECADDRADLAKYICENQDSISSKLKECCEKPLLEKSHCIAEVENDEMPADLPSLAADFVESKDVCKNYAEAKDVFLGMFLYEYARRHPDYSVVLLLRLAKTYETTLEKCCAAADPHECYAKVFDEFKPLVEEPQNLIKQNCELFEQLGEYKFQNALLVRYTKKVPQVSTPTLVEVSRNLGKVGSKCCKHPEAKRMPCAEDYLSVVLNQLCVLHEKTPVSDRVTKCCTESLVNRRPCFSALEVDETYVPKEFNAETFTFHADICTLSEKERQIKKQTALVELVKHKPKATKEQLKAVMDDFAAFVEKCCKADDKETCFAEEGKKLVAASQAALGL

[4] = biological target: Kallikrein-7 (Homo sapiens, UniProt P49862); test: Inhibition of C-terminal poly-His-tagged human recombinant KLK7 (30 to 253 residues) transfected in CHO cells assessed as inhibition constant using KHLY-pNA as fluorogenic substrate incubated for 30 mins by fluorescence plate reader assay; format: cell-based
Sequence of Kallikrein-7 (P49862 whole entry, the tested form may be a part): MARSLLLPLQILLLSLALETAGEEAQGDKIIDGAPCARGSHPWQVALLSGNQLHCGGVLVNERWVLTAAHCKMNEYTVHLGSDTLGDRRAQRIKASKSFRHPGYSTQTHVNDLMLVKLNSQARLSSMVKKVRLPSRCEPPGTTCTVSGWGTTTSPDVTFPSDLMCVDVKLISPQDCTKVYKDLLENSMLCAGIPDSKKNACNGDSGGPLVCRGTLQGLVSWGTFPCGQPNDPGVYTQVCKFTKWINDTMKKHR

Row | SMILES | half-life [1] [h] | Kd [3] [µM] | Ki [2] [µM] | also measured
1 | CC(C)C[C@@H]1NC(=O)[C@@H](NC(=O)[C@H](CCC(N)=O)NC(=O)[C@@H]2CCCN2C(=O)[C@H](CC(N)=O)NC(=O)[C@H](C)NC(=O)[C@@H]2CSCC(=O)CSC[C@H](NC(=O)[C@H](C)N)C(=O)N[C@@H]([C@@H](C)O)C(=O)N[C@@H](CCCNC(=N)N)C(=O)N[C@@H](CCC(=O)O)C(=O)N[C@@H](Cc3ccc(O)cc3)C(=O)N[C@@H](CC(N)=O)C(=O)N3CCC[C@H]3C(=O)N[C@@H](CCC(N)=O)C(=O)N2)CSCC(=O)CSC[C@@H](C(=O)N[C@@H](Cc2cnc[nH]2)C(=O)O)NC1=O |  |  | 0.028 | 
2 | C[C@@H](O)[C@@H]1NC(=O)[C@@H](NC(=O)CN)CSCC(=O)CSC[C@@H](C(=O)O)NC(=O)[C@@H]2CCCN2C(=O)[C@H](Cc2ccc(O)cc2)NC(=O)[C@H](CCC(=O)O)NC(=O)[C@H](CCCNC(=N)N)NC1=O |  |  | 0.0032 | 
3 | C[C@@H](O)[C@@H]1NC(=O)[C@@H](NC(=O)CN)CSCC(=O)CSC[C@@H](C(=O)O)NC(=O)[C@@H]2CCCN2C(=O)[C@H](Cc2c[nH]c3ccccc23)NC(=O)[C@H](CCC(N)=O)NC(=O)[C@H](CCCNC(=N)N)NC1=O |  |  | 0.0036 | 
4 | CC(C)[C@H](NC(=O)[C@H]1CSCc2cccc(n2)CSC[C@@H](NC(=O)[C@H](CO)NC(=O)CNC(=O)[C@@H]2CCCN2C(=O)[C@@H](NC(=O)[C@H](CO)NC(=O)[C@H](CC(=O)O)NC(=O)[C@@H]2CSCc3cccc(n3)CSC[C@@H](NC(=O)CN)C(=O)N[C@@H]([C@@H](C)O)C(=O)N[C@@H](CCCNC(=N)N)C(=O)N[C@@H](CCC(N)=O)C(=O)N[C@@H](Cc3c[nH]c4ccccc34)C(=O)N3CCC[C@H]3C(=O)N2)C(C)C)C(=O)N[C@@H]([C@@H](C)O)C(=O)N1)C(=O)O |  |  |  | Ki ([2]; cho): 0.002 µM
5 | C[C@@H](O)[C@@H]1NC(=O)[C@@H](NC(=O)CN)CSCC(=O)CSC[C@@H](C(=O)O)NC(=O)[C@@H]2CCCN2C(=O)[C@H](Cc2c[nH]c3ccccc23)NC(=O)[C@H](CCC(=O)O)NC(=O)[C@H](CCCNC(=N)N)NC1=O |  |  | 0.0051 | 
6 | CSCC[C@H](N)C(=O)N[C@H]1CSCC(=O)CSC[C@@H](C(=O)N[C@H]2CSCC(=O)CSC[C@@H](C(=O)N3CCC[C@H]3C(=O)O)NC(=O)[C@H]([C@@H](C)O)NC(=O)[C@H](CCCNC(=N)N)NC(=O)[C@H](CCC(N)=O)NC(=O)[C@@H]3CCCN3C2=O)NC(=O)[C@H](CC(C)C)NC(=O)[C@H](CO)NC(=O)[C@@H]2CCCN2C(=O)[C@H](CC(=O)O)NC(=O)[C@H](Cc2c[nH]c3ccccc23)NC(=O)[C@H](CCC(N)=O)NC(=O)[C@H](CCCNC(=N)N)NC(=O)[C@H](CO)NC1=O |  |  | 0.024 | 
7 | CC(C)[C@H](NC(=O)[C@H]1CSCc2cccc(n2)CSC[C@@H](NC(=O)[C@H](CO)NC(=O)CNC(=O)[C@@H]2CCCN2C(=O)[C@@H](NC(=O)[C@H](CO)NC(=O)[C@H](CC(=O)O)NC(=O)[C@@H]2CSCc3cccc(n3)CSC[C@H](NC(=O)CN)C(=O)N[C@@H]([C@@H](C)O)C(=O)N[C@@H](CCCNC(=N)N)C(=O)N[C@@H](CCC(N)=O)C(=O)N[C@@H](Cc3c[nH]c4ccccc34)C(=O)N3CCC[C@H]3C(=O)N2)C(C)C)C(=O)N[C@@H]([C@@H](C)O)C(=O)N1)C(=O)O |  |  |  | Ki ([2]; cho): 0.0027 µM
8 | CC(C)[C@@H]1NC(=O)[C@H](CCC(N)=O)NC(=O)[C@H](CCCNC(=N)N)NC(=O)[C@H]([C@@H](C)O)NC(=O)[C@@H](NC(=O)CN)CSCc2cccc(n2)CSC[C@@H](C(=O)N[C@@H](CCC(N)=O)C(=O)N[C@@H](CCC(N)=O)C(=O)N[C@H](C(=O)N2CCC[C@H]2C(=O)N[C@@H](C)C(=O)N[C@H]2CSCc3cccc(n3)CSC[C@@H](C(=O)N[C@@H](CC(N)=O)C(=O)O)NC(=O)[C@H](C)NC(=O)[C@H](CO)NC(=O)[C@@H]3CCCN3C2=O)[C@@H](C)O)NC1=O (H-GCTRQVCQQTPACPSACN-OH; linker 2-7, 13-17 via Pyridine(2,6-diCH2)) |  |  | 0.007 | 

More lines, main results first:

Row | half-life [1] [h] | Kd [3] [µM] | SMILES | Ki [2] [µM] | also measured
9 | > 96 |  | CCCCCCCCCCCCCCCC(=O)NCCCC[C@H](NC(=O)[C@H](CCC(=O)O)NC(=O)[C@H](Cc1ccc(O)cc1)NC(=O)[C@H](CCC(=O)O)NC(=O)COCCOCCNC(=O)c1ccc(-c2c3ccc(=O)cc-3oc3cc(O)ccc23)c(C(=O)O)c1)C(=O)N[C@@H](CCC(=O)O)C(=O)N[C@@H](Cc1ccc(O)cc1)C(=O)N[C@@H](CCC(=O)O)C(=O)NCCOCCOCC(=O)NCCCC[C@H](NC(=O)CNC(=O)[C@@H]1CSCC(=O)CSC[C@H](NC(=O)[C@@H]2CCCN2)C(=O)N[C@@H](CC(C)C)C(=O)N[C@@H](Cc2ccc(O)cc2)C(=O)N[C@@H](CCCC)C(=O)N[C@@H](C)C(=O)NCC(=O)N1)C(=O)NCC(N)=O |  | 
10 |  | 0.118 | CCCCCCCCCCCCCCCC(=O)NCCCC[C@H](NC(=O)[C@H](CCC(=O)O)NC(=O)[C@H](Cc1ccc(O)cc1)NC(=O)[C@H](CCC(=O)O)NC(=O)COCCOCCNC(=O)c1ccc(-c2c3ccc(=O)cc-3oc3cc(O)ccc23)c(C(=O)O)c1)C(=O)N[C@@H](CCC(=O)O)C(=O)N[C@@H](Cc1ccc(O)cc1)C(=O)N[C@@H](CCC(=O)O)C(=O)NCCOCCOCC(=O)N[C@H]1CSCC(=O)CSC[C@@H](C(N)=O)NC(=O)[C@@H]2CCCN2C(=O)[C@H](Cc2ccc(O)cc2)NC(=O)[C@H](CCC(N)=O)NC(=O)[C@H](CCCNC(=N)N)NC(=O)[C@H]([C@@H](C)O)NC1=O | 0.023 | 
11 | 4 |  | CCCCCCCCCCCCCCCC(=O)NCCCC[C@H](NC(=O)[C@H](CCC(=O)O)NC(=O)[C@H](Cc1ccc(O)cc1)NC(=O)[C@H](CCC(=O)O)NC(=O)COCCOCCNC(=O)c1ccc(-c2c3ccc(=O)cc-3oc3cc(O)ccc23)c(C(=O)O)c1)C(=O)N[C@@H](CCC(=O)O)C(=O)N[C@@H](Cc1ccc(O)cc1)C(=O)N[C@@H](CCC(=O)O)C(=O)NCCOCCOCC(=O)NCCCC[C@H](NC(=O)CNC(=O)[C@@H]1CSCC(=O)CSC[C@H](NC(=O)[C@@H]2CCCN2)C(=O)N[C@@H](CC(C)C)C(=O)N[C@@H](Cc2ccc(O)cc2)C(=O)N[C@@H](CCCC)C(=O)N[C@@H](C)C(=O)N[C@@H](CCCCNC(=N)N)C(=O)N1)C(=O)NCC(N)=O |  | 
12 |  | 0.168 | CCCCCCCCCCCCCCCC(=O)NCCCC[C@H](NC(=O)[C@H](CCC(=O)O)NC(=O)[C@H](Cc1ccc(O)cc1)NC(=O)[C@H](CCC(=O)O)NC(=O)COCCOCCNC(=O)c1ccc(-c2c3ccc(=O)cc-3oc3cc(O)ccc23)c(C(=O)O)c1)C(=O)N[C@@H](CCC(=O)O)C(=O)N[C@@H](Cc1ccc(O)cc1)C(=O)N[C@@H](CCC(=O)O)C(=O)NCCOCCOCC(=O)N1CCC[C@H]1C(=O)N[C@H]1CSCC(=O)CSC[C@@H](C(=O)N[C@@H](CO)C(N)=O)NC(=O)[C@H](CCCNC(=N)N)NC(=O)[C@H](C)NC(=O)[C@H](CC(C)C)NC(=O)[C@H](Cc2ccc(O)cc2)NC(=O)[C@H](CC(C)C)NC1=O |  | Ki [4]: 0.106 µM
13 | > 96 |  | CCCCCCCCCCCCCCCC(=O)NCCCC[C@H](NC(=O)[C@H](CCC(=O)O)NC(=O)[C@H](Cc1ccc(O)cc1)NC(=O)[C@H](CCC(=O)O)NC(=O)COCCOCCNC(=O)c1ccc(-c2c3ccc(=O)cc-3oc3cc(O)ccc23)c(C(=O)O)c1)C(=O)N[C@@H](CCC(=O)O)C(=O)N[C@@H](Cc1ccc(O)cc1)C(=O)N[C@@H](CCC(=O)O)C(=O)NCCOCCOCC(=O)NCCCC[C@H](NC(=O)CNC(=O)[C@@H]1CSCC(=O)CSC[C@H](NC(=O)[C@@H]2CCCN2)C(=O)N[C@@H](CC(C)C)C(=O)N[C@@H](Cc2ccc(O)cc2)C(=O)N[C@@H](CCCC)C(=O)N[C@@H](C)C(=O)N[C@@H](CCCNC(N)=O)C(=O)N1)C(=O)NCC(N)=O |  | 
14 | 0.4 | 0.164 | CCCCCCCCCCCCCCCC(=O)NCCCC[C@H](NC(=O)[C@H](CCC(=O)O)NC(=O)[C@H](Cc1ccc(O)cc1)NC(=O)[C@H](CCC(=O)O)NC(=O)COCCOCCNC(=O)c1ccc(-c2c3ccc(=O)cc-3oc3cc(O)ccc23)c(C(=O)O)c1)C(=O)N[C@@H](CCC(=O)O)C(=O)N[C@@H](Cc1ccc(O)cc1)C(=O)N[C@@H](CCC(=O)O)C(=O)NCCOCCOCC(=O)NCCCC[C@H](NC(=O)CNC(=O)[C@@H]1CSCC(=O)CSC[C@H](NC(=O)[C@@H]2CCCN2)C(=O)N[C@@H](CC(C)C)C(=O)N[C@@H](Cc2ccc(O)cc2)C(=O)N[C@@H](CC(C)C)C(=O)N[C@@H](C)C(=O)N[C@@H](CCCNC(=N)N)C(=O)N1)C(=O)NCC(N)=O |  | Ki [4]: 0.031 µM
15 | < 0.0833 | 0.039 | C[C@@H](O)[C@@H]1NC(=O)[C@@H](NC(=O)CN)CSCC(=O)CSC[C@@H](C(=O)O)NC(=O)[C@@H]2CCCN2C(=O)[C@H](Cc2ccc(O)cc2)NC(=O)[C@H](CCC(N)=O)NC(=O)[C@H](CCCNC(=N)N)NC1=O (H-GCTRQYPC-OH; linker 2-8 via CH2COCH2) | 0.0022 | 
16 | < 0.0833 | 0.039 | CC(C)C[C@@H]1NC(=O)[C@H](Cc2ccc(O)cc2)NC(=O)[C@H](CC(C)C)NC(=O)[C@@H](NC(=O)[C@@H]2CCCN2)CSCC(=O)CSC[C@@H](C(=O)N[C@@H](CO)C(=O)O)NC(=O)[C@H](CCCNC(=N)N)NC(=O)[C@H](C)NC1=O (H-PCLYLARCS-OH; linker 2-8 via CH2COCH2) |  | Ki ([4]; cho): 0.016 µM
